Columns and labels:
[1] = tested on: Radical scavenging activity; assay: Antioxidant activity assessed as DPPH free radical scavenging activity after 30 mins by microplate reader assay; format: functional
[2] = Antioxidant activity assessed as inhibition of lipid peroxidation; format: functional

| Compound | IC50 [1] | IC50 [2] |
| --- | --- | --- |
| Oc1ccc([C@H]2c3c(O)cc(O)cc3[C@H]3c4c(O)cc(O)cc4[C@@H]2[C@H]3c2ccc(O)cc2)cc1 | > 200 µM | > 200 µM |
| Oc1ccc(C2[C@H]3c4cc(O)cc(O)c4[C@@H](c4ccc(O)cc4)[C@@H]2c2cc(O)cc(O)c23)cc1 (stereo partly drawn) | > 200 µM | > 200 µM |
| Oc1ccc([C@H]2Oc3cc(O)cc4c3[C@@H]2c2cc(O)cc3c2[C@@H](c2cc(O)cc5c2[C@@H]4[C@H](c2ccc(O)cc2)O5)[C@H](c2ccc(O)cc2)O3)cc1 (relative stereo) | > 200 µM | > 200 µM |
| Oc1ccc([C@@H]2c3c(O)cc(O)cc3[C@H]3[C@H](c4ccc(O)cc4)c4c(O)cc(O)cc4[C@@H]23)cc1 (relative stereo) [PALLIDOL] | 165 µM | 128 µM |
| Cc1c(C)c2c(c(C)c1O)CC[C@@](C)(CCC[C@H](C)CCC[C@H](C)CCCC(C)C)O2 [ALPHA-TOCOPHEROL] |  | 12.5 µM |
| O=C1O[C@H]([C@@H](O)CO)C(O)=C1O [ASCORBIC ACID] | 57.2 µM |  |
| O=C(c1ccc(O)cc1)[C@H]1c2cc(O)cc(O)c2[C@@H](c2ccc(O)cc2)[C@H]1c1cc(O)cc(O)c1 [CARAPHENOL B] | 73.9 µM | 43.1 µM |
| COc1cc(O)cc2c1C(=O)C(O)(Cc1ccc(O)cc1)O2 (stereo not drawn) [CARPUSIN] | > 200 µM | > 200 µM |
| Oc1ccc([C@H]2Oc3cc(O)cc([C@@H]4[C@H](c5cc(O)cc(O)c5)[C@@H](c5ccc(O)cc5)O[C@H]4c4ccc(O)cc4)c3[C@@H]2c2cc(O)c3c(c2)[C@@H](c2cc(O)cc(O)c2)[C@H](c2ccc(O)cc2)O3)cc1 [KOBOPHENOL A] | > 200 µM | > 200 µM |
| Oc1ccc(/C=C/c2cc(O)cc(O)c2)cc1 [RESVERATROL] | 92.1 µM | 30.1 µM |

Reference: ChEMBL document CHEMBL1938305, “Antioxidative oligostilbenes from Caragana sinica” (Bioorg Med Chem Lett, 2012)
